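Following 48 hours of exposure in 96-well plates, responses at five concentrations were used to interpolate endpoints linearly. GI50 marks 50% less growth.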 The source made the active and inactive calls. No stated cut-off is given here; in the data, active = GI50 up to about 1.1 µM and inactive = higher.
Experiments:
Assay in all cases: growth of human tumour cells (NCI), 48 h
[1] = test system: OVCAR-5
[2] = test system: COLO 205
[3] = test system: NCI-H23
[4] = test system: Hs-578T
[5] = test system: TK-10
[6] = test system: SF-539
[7] = test system: MDA-N
[8] = test system: CAKI-1
[9] = test system: UACC-257
[10] = test system: ACHN
[11] = test system: NCI-H226
[12] = test system: NCI-H460
[13] = test system: SK-OV-3
[14] = test system: MOLT-4
[15] = test system: HCC 2998
[16] = test system: SN12C
[17] = test system: HL-60
[18] = test system: BT-549
[19] = test system: NCI-H522
[20] = test system: 786-0

Compound	GI50 [1]	GI50 [2]	GI50 [3]	GI50 [4]	GI50 [5]	GI50 [6]	GI50 [7]	GI50 [8]	GI50 [9]	GI50 [10]	GI50 [11]	GI50 [12]	GI50 [13]	GI50 [14]	GI50 [15]	GI50 [16]	GI50 [17]	GI50 [18]	GI50 [19]	GI50 [20]
Oc1nc2c(c(-c3ccc(Br)cc3)n1)COC/C2=C\c1ccc(Br)cc1	> 50 µM (inactive)	> 50 µM (inactive)	> 50 µM (inactive)	> 50 µM (inactive)	> 50 µM (inactive)	> 50 µM (inactive)	> 50 µM (inactive)	> 50 µM (inactive)	> 50 µM (inactive)	> 50 µM (inactive)	> 50 µM (inactive)	> 50 µM (inactive)	> 50 µM (inactive)	> 50 µM (inactive)	> 50 µM (inactive)	> 50 µM (inactive)	> 50 µM (inactive)	> 50 µM (inactive)	> 50 µM (inactive)	> 50 µM (inactive)
COC1CCC(O)C(/C=C/[N+](=O)[O-])C1 (stereo not given)	9.1 µM (inactive)	2.28 µM (inactive)	3.91 µM (inactive)	2.99 µM (inactive)	4.72 µM (inactive)	4.4 µM (inactive)	1.99 µM (inactive)	16.2 µM (inactive)	2.01 µM (inactive)	15.7 µM (inactive)	2.07 µM (inactive)	2.62 µM (inactive)	10.1 µM (inactive)	2.18 µM (inactive)	1.7 µM (inactive)	2.8 µM (inactive)	1.8 µM (inactive)	2.58 µM (inactive)	10.9 µM (inactive)	1.7 µM (inactive)
COCC1OC(OC2OCC3OC4(OCC(O)(C(C)OC)C5OCOC54)OC3C2OC)C(OC)C(O)C1OC1OC(C)C(OC)C(OC2OC(C)C3OC4(CC(O)C(OC5CC(OC6CC(C)([N+](=O)[O-])C(OC)C(C)O6)C(OC(=O)c6c(C)c(Cl)c(O)c(Cl)c6OC)C(C)O5)C(C)O4)OC3(C)C2O)C1O (stereo not given)	> 100 µM (inactive)	> 100 µM (inactive)	> 100 µM (inactive)	> 100 µM (inactive)	> 100 µM (inactive)	> 100 µM (inactive)	> 100 µM (inactive)	> 100 µM (inactive)	> 100 µM (inactive)	> 100 µM (inactive)	> 100 µM (inactive)	> 100 µM (inactive)	> 100 µM (inactive)	> 100 µM (inactive)	> 100 µM (inactive)	> 100 µM (inactive)	> 100 µM (inactive)	> 100 µM (inactive)	> 100 µM (inactive)	> 100 µM (inactive)
C[C@H](CCC(=O)NN)[C@H]1CC[C@H]2[C@@H]3CC[C@@H]4C[C@H](O)CC[C@]4(C)[C@H]3CC[C@]12C	> 88.3 µM (inactive)	31.6 µM (inactive)	41.2 µM (inactive)	> 100 µM (inactive)	38.3 µM (inactive)	84.1 µM (inactive)	75.7 µM (inactive)	46.3 µM (inactive)	61.7 µM (inactive)	54.8 µM (inactive)	> 74.6 µM (inactive)	52.1 µM (inactive)	> 100 µM (inactive)	10.4 µM (inactive)	41.4 µM (inactive)	55.7 µM (inactive)	8.53 µM (inactive)	57.8 µM (inactive)	29.2 µM (inactive)	36.4 µM (inactive)
CCCCCCCCCCCCCCCC(=O)OCC(C[As](=O)(O)O)OC(=O)CCCCCCCCCCCCCCC (stereo not given)	> 100 µM (inactive)	> 100 µM (inactive)	> 100 µM (inactive)	58.5 µM (inactive)	> 66.5 µM (inactive)	> 100 µM (inactive)	> 100 µM (inactive)	97.3 µM (inactive)	> 100 µM (inactive)	> 71.6 µM (inactive)	> 74.8 µM (inactive)	> 100 µM (inactive)	> 58.2 µM (inactive)	> 100 µM (inactive)	> 100 µM (inactive)	> 74.5 µM (inactive)	> 100 µM (inactive)	> 100 µM (inactive)	> 100 µM (inactive)	> 84.5 µM (inactive)
CC1OC(OC2CC(O)(C(=O)CO)Cc3c(O)c4c(c(O)c32)C(=O)c2ccccc2C4=O)CC(N)C1O (stereo not given)	0.0242 µM (active)	< 0.017 µM (active)	0.0162 µM (active)	0.0206 µM (active)	0.0559 µM (active)	< 0.0112 µM (active)	0.0652 µM (active)	< 0.01 µM (active)	0.054 µM (active)	< 0.01 µM (active)	< 0.01 µM (active)	< 0.01 µM (active)	0.0109 µM (active)	< 0.01 µM (active)	< 0.01 µM (active)	< 0.0112 µM (active)	< 0.01 µM (active)	0.171 µM (active)	< 0.0183 µM (active)	< 0.01 µM (active)
c1c[nH]c(-c2ccc(-c3ccc[nH]3)c3nsnc23)c1	1.14 µM (inactive)	1.53 µM (inactive)	0.0348 µM (active)	35.9 µM (inactive)	0.182 µM (active)	> 56.9 µM (inactive)	> 70.1 µM (inactive)	> 66.7 µM (inactive)	> 61 µM (inactive)	> 52.6 µM (inactive)	> 100 µM (inactive)	17.3 µM (inactive)	> 68.1 µM (inactive)	> 30.3 µM (inactive)	0.456 µM (active)	> 54.5 µM (inactive)	73.8 µM (inactive)	27 µM (inactive)	53.6 µM (inactive)	> 39.1 µM (inactive)
c1csc(-c2csc(-c3ccsc3)c2)c1	> 100 µM (inactive)	> 100 µM (inactive)	> 68.2 µM (inactive)	> 100 µM (inactive)	> 100 µM (inactive)	> 55.5 µM (inactive)	> 100 µM (inactive)	> 100 µM (inactive)	> 100 µM (inactive)	> 100 µM (inactive)	> 57.5 µM (inactive)	> 100 µM (inactive)	> 100 µM (inactive)	62.4 µM (inactive)	> 100 µM (inactive)	> 100 µM (inactive)	> 74.6 µM (inactive)	> 100 µM (inactive)	61.5 µM (inactive)	> 100 µM (inactive)
COc1ccc2c(-c3csc(-c4c[nH]c5ccccc45)n3)c[nH]c2c1	7.8 µM (inactive)	6.59 µM (inactive)	11.6 µM (inactive)	12.5 µM (inactive)	9.2 µM (inactive)	5.73 µM (inactive)	8.73 µM (inactive)	12.1 µM (inactive)	12.7 µM (inactive)	5.48 µM (inactive)	9.4 µM (inactive)	2.29 µM (inactive)	17.7 µM (inactive)	3.86 µM (inactive)	4.03 µM (inactive)	7.57 µM (inactive)	4.66 µM (inactive)	11.8 µM (inactive)	4.04 µM (inactive)	5.53 µM (inactive)
CN(C)CCC(C#N)(c1ccccc1)c1ccccc1	79.6 µM (inactive)	45.2 µM (inactive)	> 100 µM (inactive)	93.5 µM (inactive)	60.1 µM (inactive)	> 100 µM (inactive)	45 µM (inactive)	> 100 µM (inactive)	24.4 µM (inactive)	> 100 µM (inactive)	> 100 µM (inactive)	> 100 µM (inactive)	> 100 µM (inactive)	0.102 µM (active)	17.5 µM (inactive)	72.4 µM (inactive)	6.62 µM (inactive)	> 100 µM (inactive)	96.6 µM (inactive)	> 100 µM (inactive)

Reference: ChEMBL document CHEMBL1201862, “PubChem BioAssay data set” (2004)
